Data reported in US4187292A, “Antibiotics produced from the microorganism nocardice” (Takeda Chemical Industries, Ltd., priority 1977, dated 1980).
≈ marks a conversion by molar mass, not a printed value.

Experiments:
Stability in solution = type: physicochemical
Candida albicans [1] = assay: Antimicrobial activity, serial dilution method (Trypticase-soy agar); type: cell-based; details: IFO 0583
Description: (§1) The antimicrobial activities of Antibiotics C-14919 E-1 and E-2 were assayed by the serial dilution method using Trypticase-soy agar (BBL), glucose nutrient agar and glycerol nutrient agar as test media (Table 5). In addition, the activities against Tetrahymena pyriformis W were determined by the serial dilution method using the assay medium [Proteose-peptone 20 g, yeast extract 1 g, glucose 2 g, distilled water 1000 ml, 1 M-phosphate buffer (pH 7.0) 10 ml].

Mycobacterium phlei = assay: Antimicrobial activity, serial dilution method; type: cell-based; details: Glycerol nutrient agar
Description: as §1
(§2) ***Glycerol nutrient agar

Mycobacterium avium = assay: Antimicrobial activity, serial dilution method; type: cell-based; details: Glycerol nutrient agar
Description: as §1, §2

[2] = Acid, neutral or basic nature / lipophilicity; type: physicochemical
[3] = tested on: Gram-positive bacteria, fungi and yeasts; assay: Antimicrobial spectrum (summary of Table 5); type: cell-based; details: antimicrobial spectrum of Table 5
Description: as §1

P388 leukemia = assay: Therapeutic activity against P388 leukemia in mice; type: in vivo; details: for antitumour activity in terms of the extension of life spans: 5 mg/kg/day, intraperitoneally, consecutive days, P388 1×10^6 cells/animal i.p. transplanted; for life-extending effect upon tumour-bearing mammals: e.g. mouse
Description: The therapeutic activity (intraperitoneally administered for a consecutive days) of C-14919 E-1 and E-2 against P388 leukemia in mice (1×10^6 cells/animal, mouse, itraperitoneally transplanted) was investigated. The antitumour activity in terms of the extension of life spans was 144% at the dose level of 5 mg/kg/day.

[4] = Acute toxicity test in mice; type: in vivo; details: intraperitoneal administration
Description: The assumed LD50 as determined by intraperitoneal administration of C-14919 E-1 and E-2 in an acute toxicity test using mice as test animals are as follows.

Candida albicans [5] = assay: Antimicrobial activity, serial dilution method (Glucose nutrient agar); type: cell-based; details: IFO 0583
Description: as §1
(§3) **Glucose nutrient agar

Solubility = type: physicochemical
Tetrahymena pyriformis W = assay: Activity against Tetrahymena pyriformis W, serial dilution method; type: cell-based; details: Proteose-peptone solution, pH 7.0
Description: as §1
****Proteose-peptone solution

Pseudomonas aeruginosa = assay: Antimicrobial activity, serial dilution method; type: cell-based; details: IFO 3080; Trypticase-soy agar
Description: as §1

Escherichia coli K-12 = assay: Antimicrobial activity, serial dilution method; type: cell-based; details: IFO 3301; Trypticase-soy agar
Description: as §1

Micrococcus flavus = assay: Antimicrobial activity, serial dilution method; type: cell-based; details: IFO 3242; Trypticase-soy agar
Description: as §1

Bacillus subtilis PCI219 = assay: Antimicrobial activity, serial dilution method; type: cell-based; details: IFO 3513; Trypticase-soy agar
Description: as §1

Alcaligenes faecalis = assay: Antimicrobial activity, serial dilution method; type: cell-based; details: IFO 13111; Trypticase-soy agar
Description: as §1

Bacillus pumilus = assay: Antimicrobial activity, serial dilution method; type: cell-based; details: IFO 3813; Trypticase-soy agar
Description: as §1

Proteus vulgaris = assay: Antimicrobial activity, serial dilution method; type: cell-based; details: IFO 3045; Trypticase-soy agar
Description: as §1

Bacillus megaterium = assay: Antimicrobial activity, serial dilution method; type: cell-based; details: IFO 12108; Trypticase-soy agar
Description: as §1

Sarcina lutea = assay: Antimicrobial activity, serial dilution method; type: cell-based; details: IFO 3232; Trypticase-soy agar
Description: as §1

Bacillus cereus = assay: Antimicrobial activity, serial dilution method; type: cell-based; details: IFO 3514; Trypticase-soy agar
Description: as §1

[6] = tested on: Staphylococcus aureus 209P; assay: Antimicrobial activity, serial dilution method; type: cell-based; details: IFO 12732; Trypticase-soy agar
Description: as §1

Bacillus subtilis 6633 = assay: Antimicrobial activity, serial dilution method; type: cell-based; details: IFO 3134; Trypticase-soy agar
Description: as §1

Salmonella typhimurium = assay: Antimicrobial activity, serial dilution method; type: cell-based; details: IFO 12529; Trypticase-soy agar
Description: as §1

Bacillus brevis = assay: Antimicrobial activity, serial dilution method; type: cell-based; details: IFO 3331; Trypticase-soy agar
Description: as §1

Serratia marcescens = assay: Antimicrobial activity, serial dilution method; type: cell-based; details: IFO 3046; Trypticase-soy agar
Description: as §1

Penicillium chrysogenum = assay: Antimicrobial activity, serial dilution method; type: cell-based; details: IFO 4626; Glucose nutrient agar
Description: as §1, §3

Trychophyton rubrum = assay: Antimicrobial activity, serial dilution method; type: cell-based; details: IFO 5467; Glucose nutrient agar
Description: as §1, §3

Microsporum cookei = assay: Antimicrobial activity, serial dilution method; type: cell-based; details: IFO 8303; Glucose nutrient agar
Description: as §1, §3

Microsporum canis = assay: Antimicrobial activity, serial dilution method; type: cell-based; details: IFO 7863; Glucose nutrient agar
Description: as §1, §3

Candida pseudotropicalis = assay: Antimicrobial activity, serial dilution method; type: cell-based; details: IFO 0617; Glucose nutrient agar
Description: as §1, §3

Hormodendrum pedrosoi = assay: Antimicrobial activity, serial dilution method; type: cell-based; details: IFO 6071; Glucose nutrient agar
Description: as §1, §3

Candida utilis = assay: Antimicrobial activity, serial dilution method; type: cell-based; details: IFO 0619; Glucose nutrient agar
Description: as §1, §3

Candida krusei = assay: Antimicrobial activity, serial dilution method; type: cell-based; details: IFO 1395; Glucose nutrient agar
Description: as §1, §3

Cryptococcus neoformans = assay: Antimicrobial activity, serial dilution method; type: cell-based; details: IFO 0410; Glucose nutrient agar
Description: as §1, §3

Candida = assay: Antimicrobial activity, serial dilution method; type: cell-based; details: IFO 1396; Glucose nutrient agar
Description: as §1, §3

Aspergillus niger = assay: Antimicrobial activity, serial dilution method; type: cell-based; details: IFO 4066; Glucose nutrient agar
Description: as §1, §3

Saccharomyces cerevisiae = assay: Antimicrobial activity, serial dilution method; type: cell-based; details: IFO 0209; Glucose nutrient agar
Description: as §1, §3

Candida tropicalis = assay: Antimicrobial activity, serial dilution method; type: cell-based; details: IFO 1400; Glucose nutrient agar
Description: as §1, §3

[7] = Room temp., basic solution/conditions
[8] = Room temp., neutral and weakly acidic solutions/conditions

With `COC1C[C@H](C)[C@@H](OC)C2=CC(=O)C=C(NC(=O)/C(C)=C/C=C\[C@H](C)C(OC(N)=O)/C(C)=C/[C@@H](C)[C@@H]1OC)C2=O` (some centres unmarked) [C-14919 E-1] the Stability (Stability in solution; 80° C., 1 hr.) was “unstable”, the Stability (Stability in solution; [7]) was “Unstable” and the Stability (Stability in solution; [8]) was “Stable”. The MIC (Candida albicans [1]) was 25 µg/mL (≈ 44.7 µM), the MIC (Mycobacterium phlei) was greater than 100 µg/mL and the MIC (Mycobacterium avium) was greater than 100 µg/mL. For the same compound, the “Acid, neutral or basic” value [2] was “a neutral substance”, the lipophilicity [2] was “lipophyl” and the antimicrobial activity [3] was “display activity against Gram-positive bacteria, fungi and yeasts”. For the same compound, the “antitumour activity in terms of the extension of life spans” value (P388 leukemia) was 144%, the “life-extending effect upon tumour-bearing mammals” value (P388 leukemia) was “life-extending effect” and the “assumed LD50” value [4] was 50 to 100 mg/kg. For the same compound, the MIC (Candida albicans [5]) was 50 µg/mL (≈ 89.5 µM), the Solubility in acetone (Solubility) was “Soluble” and the Solubility in benzene (Solubility) was “Sparingly soluble”. For the same compound, the Solubility in butanol (Solubility) was “Soluble”, the Solubility in chloroform (Solubility) was “Soluble” and the “Solubility in diethyl ether” value (Solubility) was “Sparingly soluble”. The Solubility in dimethylsulfoxide (Solubility) was “Readily soluble”, the Solubility in ethanol (Solubility) was “Soluble” and the “Solubility in ethyl acetate” value (Solubility) was “Soluble”. For the same compound, the Solubility in hexane (Solubility) was “Insoluble”, the Solubility in methanol (Solubility) was “Soluble” and the “Solubility in methyl isobutyl ketone” value (Solubility) was “Soluble”. For the same compound, the “Solubility in petroleum ether” value (Solubility) was “Insoluble”, the Solubility in water (Solubility) was “Insoluble” and the MIC (Tetrahymena pyriformis W) was 10 µg/mL (≈ 17.9 µM). It also gave an MIC (Pseudomonas aeruginosa) greater than 100 µg/mL, an MIC (Escherichia coli K-12) greater than 100 µg/mL and an MIC (Micrococcus flavus) of 50 µg/mL (≈ 89.5 µM). For the same compound, the MIC (Bacillus subtilis PCI219) was 100 µg/mL (≈ 179 µM), the MIC (Alcaligenes faecalis) was greater than 100 µg/mL and the MIC (Bacillus pumilus) was 50 µg/mL (≈ 89.5 µM). The MIC (Proteus vulgaris) was greater than 100 µg/mL, the MIC (Bacillus megaterium) was 50 µg/mL (≈ 89.5 µM) and the MIC (Sarcina lutea) was 50 µg/mL (≈ 89.5 µM). It also gave an MIC (Bacillus cereus) greater than 100 µg/mL, an MIC [6] greater than 100 µg/mL and an MIC (Bacillus subtilis 6633) of 50 µg/mL (≈ 89.5 µM). The MIC (Salmonella typhimurium) was greater than 100 µg/mL, the MIC (Bacillus brevis) was 50 µg/mL (≈ 89.5 µM) and the MIC (Serratia marcescens) was greater than 100 µg/mL. The MIC (Penicillium chrysogenum) was 50 µg/mL (≈ 89.5 µM), the MIC (Trychophyton rubrum) was greater than 100 µg/mL and the MIC (Microsporum cookei) was greater than 100 µg/mL. It also gave an MIC (Microsporum canis) greater than 100 µg/mL, an MIC (Candida pseudotropicalis) of 100 µg/mL (≈ 179 µM) and an MIC (Hormodendrum pedrosoi) greater than 100 µg/mL. The MIC (Candida utilis) was greater than 100 µg/mL, the MIC (Candida krusei) was greater than 100 µg/mL and the MIC (Cryptococcus neoformans) was greater than 100 µg/mL. It also gave an MIC (Candida) of 50 µg/mL (≈ 89.5 µM), an MIC (Aspergillus niger) of 100 µg/mL (≈ 179 µM) and an MIC (Saccharomyces cerevisiae) of 100 µg/mL (≈ 179 µM). It also gave an MIC (Candida tropicalis) greater than 100 µg/mL.

For `COC1CC(C)C(OC)c2cc(O)cc(c2O)NC(=O)/C(C)=C/C=C\C(C)C(OC(N)=O)/C(C)=C/C(C)C1OC` (centres unmarked) [C-14919 E-2], the Stability (Stability in solution; 80° C., 1 hr.) was “unstable”, the Stability (Stability in solution; [7]) was “Unstable” and the Stability (Stability in solution; [8]) was “Stable”. For the same compound, the MIC (Candida albicans [1]) was 6.25 µg/mL (≈ 11.1 µM), the MIC (Mycobacterium phlei) was greater than 100 µg/mL and the MIC (Mycobacterium avium) was greater than 100 µg/mL. The “Acid, neutral or basic” value [2] was “a neutral substance”, the lipophilicity [2] was “lipophyl” and the antimicrobial activity [3] was “display activity against Gram-positive bacteria, fungi and yeasts”. The “antitumour activity in terms of the extension of life spans” value (P388 leukemia) was 144%, the “life-extending effect upon tumour-bearing mammals” value (P388 leukemia) was “life-extending effect” and the “assumed LD50” value [4] was 25 to 100 mg/kg. For the same compound, the MIC (Candida albicans [5]) was 25 µg/mL (≈ 44.6 µM), the Solubility in acetone (Solubility) was “Soluble” and the Solubility in benzene (Solubility) was “Sparingly soluble”. The Solubility in butanol (Solubility) was “Soluble”, the Solubility in chloroform (Solubility) was “Sparingly soluble” and the “Solubility in diethyl ether” value (Solubility) was “Sparingly soluble”. The Solubility in dimethylsulfoxide (Solubility) was “Readily soluble”, the Solubility in ethanol (Solubility) was “Soluble” and the “Solubility in ethyl acetate” value (Solubility) was “Soluble”. The Solubility in hexane (Solubility) was “Insoluble”, the Solubility in methanol (Solubility) was “Soluble” and the “Solubility in methyl isobutyl ketone” value (Solubility) was “Soluble”. The “Solubility in petroleum ether” value (Solubility) was “Insoluble”, the Solubility in water (Solubility) was “Sparingly soluble” and the MIC (Tetrahymena pyriformis W) was 10 µg/mL (≈ 17.8 µM). The MIC (Pseudomonas aeruginosa) was greater than 100 µg/mL, the MIC (Escherichia coli K-12) was greater than 100 µg/mL and the MIC (Micrococcus flavus) was 50 µg/mL (≈ 89.2 µM). It also gave an MIC (Bacillus subtilis PCI219) greater than 100 µg/mL, an MIC (Alcaligenes faecalis) of 100 µg/mL (≈ 178 µM) and an MIC (Bacillus pumilus) of 100 µg/mL (≈ 178 µM). For the same compound, the MIC (Proteus vulgaris) was greater than 100 µg/mL, the MIC (Bacillus megaterium) was 50 µg/mL (≈ 89.2 µM) and the MIC (Sarcina lutea) was 50 µg/mL (≈ 89.2 µM). The MIC (Bacillus cereus) was greater than 100 µg/mL, the MIC [6] was greater than 100 µg/mL and the MIC (Bacillus subtilis 6633) was 100 µg/mL (≈ 178 µM). It also gave an MIC (Salmonella typhimurium) greater than 100 µg/mL, an MIC (Bacillus brevis) of 50 µg/mL (≈ 89.2 µM) and an MIC (Serratia marcescens) greater than 100 µg/mL. The MIC (Penicillium chrysogenum) was 25 µg/mL (≈ 44.6 µM), the MIC (Trychophyton rubrum) was greater than 100 µg/mL and the MIC (Microsporum cookei) was greater than 100 µg/mL. It also gave an MIC (Microsporum canis) greater than 100 µg/mL, an MIC (Candida pseudotropicalis) of 100 µg/mL (≈ 178 µM) and an MIC (Hormodendrum pedrosoi) greater than 100 µg/mL. The MIC (Candida utilis) was greater than 100 µg/mL, the MIC (Candida krusei) was greater than 100 µg/mL and the MIC (Cryptococcus neoformans) was greater than 100 µg/mL. It also gave an MIC (Candida) of 25 µg/mL (≈ 44.6 µM), an MIC (Aspergillus niger) of 100 µg/mL (≈ 178 µM) and an MIC (Saccharomyces cerevisiae) of 100 µg/mL (≈ 178 µM). It also gave an MIC (Candida tropicalis) greater than 100 µg/mL.
